Legend:
PI3Kδ = molecular target: T1, PI3Kδ (Homo sapiens, UniProt O00329); assay: ELISA assay for PI3Kδ: sandwich ELISA, phosphorylation of AKT (Thr308) in Raji cells; type: cell-based; details: for IC50: cellular, pAKT (Thr308), Raji cells, anti-Human IgM stimulation, read-out: IC50 p110δ; for α/δ ratio / β/δ ratio / γ/δ ratio: ratio of cellular IC50 values, Table 2
T1 construct: endogenous in cells; host or cells: Raji (ATCC #CCL-86)
In short: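 Raji cells, serum-starved 2 hrs, treated with compound (10 concentrations) for 2 hrs at 37° C, then stimulated 30 min with anti-human IgM. Lysates analysed by sandwich ELISA for pAKT Thr308 and total AKT with luminescent read-out. IC50 from curve fitting.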

mTOR = mTOR (Homo sapiens, UniProt P42345); assay: mTOR inhibition (Table 1); type: biochemical; details: Table 1, no method described
PI3Kα = PI3Kα (Homo sapiens, UniProt P42336); assay: ELISA assay for PI3Kα: in-cell ELISA, phosphorylation of AKT (Thr308) in MDA-MB-453 cells; type: cell-based; details: cellular, pAKT (Thr308), IGF-1 stimulation, read-out: IC50 p110α
Experimental: PI3K alpha (PI3Kα) activity was determined by measuring the phosphorylation of AKT (Thr308) using an in-cell ELISA assay. MDA-MB-453 (breast carcinoma) cells were obtained from ATCC (ATCC #HTB-131). Growth medium was DMEM (CellGro #CV-10-013-CV) supplemented with 10% fetal bovine serum, 100 IU/mL penicillin, 100 μg/mL streptomycin, and 1×MEM non-essential amino acids. Phosphate buffered saline (PBS) contained 2.7 M NaCl, 54 mM KCl, 86 mM […] (dibasic, anhydrous), and 28 mM […] (monobasic, anhydrous) at pH 7.2. Stimulation mixture (10×) was 1000 ng/mL LONG® R^3 human IGF-1 (Sigma #I1271) diluted in serum-free DMEM medium (CellGro #CV-10-013-CV). Compounds for testing were dissolved and serially diluted in 100% DMSO (total of 10 concentrations), then diluted in serum-free DMEM to 2× final assay concentration. Fixative solution (2×) was 8% formaldehyde (Amresco #M134) diluted in PBS. Permeabilization solution was PBS supplemented with 0.1% Triton X-100. Blocking buffer was obtained from LiCor (LiCor #927-40000). Wash buffer was PBS supplemented with 0.1% Tween-20. Primary antibody solution was rabbit anti-pAKT^T308 monoclonal antibody (Cell Signaling #2965) and mouse anti-total S6 (Santa Cruz #74459) diluted 1:500 and 1:2000, respectively, in the blocking buffer. Secondary antibody solution was IRDye 800CW-conjugated goat anti-rabbit IgG (LiCor #926-32211) and IRDye 680LT-conjugated goat anti-mouse IgG (LiCor #926-68020) diluted 1:1000 and 1:2000, respectively, in the blocking buffer.
MDA-MB-453 cells were subcultured in growth medium and seeded into flat, clear bottom, 96-well plates (Corning #3904) at 40000 cells/well, then incubated overnight in a 5% CO2 incubator at 37° C. Growth medium in plates was replaced with 100 μL/well serum-free DMEM and incubated overnight at 37° C. in a 5% CO2 incubator. Fresh serum-free DMEM (50 μL/well) was added to plates. Compound treatment was performed by adding 50 μL/well of 2× compound mixture to plates and incubating for 1 hr at 37° C. and 5% CO2, after which 11 μL/well of 10× stimulation mixture was added and plates were incubated for 10 min at 37° C. and 5% CO2. Fixation was performed by adding 110 μL/well of 2× fixative solution to the plates and incubating for 20 min at room temperature. Permeabilization was performed by replacing fixation solution with 150 μL/well permeabilization solution and incubating for 10 min at room temperature. Permeabilization was repeated (for a total of 2 times). Permeabilization solution was replaced with 100 μL/well blocking buffer and plates were incubated for 1 hour at room temperature, after which 100 μL/well of primary antibody solution was added and plates were incubated overnight at 4° C. Plates were washed with wash buffer, after which 100 μL/well of secondary antibody solution was added to the plates and incubated in the dark for 1 hr at room temperature. Plates were washed with wash buffer, followed by a wash with PBS. After completely removing PBS, plates were scanned on the Licor Odyssey Imager. Images were quantified using Licor Odyssey application software. IC50 values were determined by curve fitting using a Collaborative Drug Discovery database (www.collaborativedrug.com).

PI3Kα, sequence (P27986 2-724): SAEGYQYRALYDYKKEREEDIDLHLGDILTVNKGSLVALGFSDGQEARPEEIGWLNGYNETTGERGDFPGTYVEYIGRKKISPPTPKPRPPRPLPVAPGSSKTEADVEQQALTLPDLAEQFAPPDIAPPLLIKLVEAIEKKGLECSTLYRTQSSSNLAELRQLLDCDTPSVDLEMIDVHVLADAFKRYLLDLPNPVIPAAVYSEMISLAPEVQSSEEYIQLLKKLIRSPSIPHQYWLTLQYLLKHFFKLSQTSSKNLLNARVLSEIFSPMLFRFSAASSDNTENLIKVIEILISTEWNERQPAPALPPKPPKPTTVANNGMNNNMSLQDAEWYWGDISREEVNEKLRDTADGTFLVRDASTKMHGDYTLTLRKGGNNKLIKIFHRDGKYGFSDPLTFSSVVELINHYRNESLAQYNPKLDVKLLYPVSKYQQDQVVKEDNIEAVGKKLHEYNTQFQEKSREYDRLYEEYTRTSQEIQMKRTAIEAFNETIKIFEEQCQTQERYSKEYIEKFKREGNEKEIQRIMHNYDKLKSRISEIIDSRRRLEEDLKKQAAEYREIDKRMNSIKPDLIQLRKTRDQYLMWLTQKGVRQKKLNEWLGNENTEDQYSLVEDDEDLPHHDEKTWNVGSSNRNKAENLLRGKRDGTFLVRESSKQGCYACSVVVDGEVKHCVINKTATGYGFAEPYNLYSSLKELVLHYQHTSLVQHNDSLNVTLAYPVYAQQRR
PI3Kα, sequence (P42336 whole entry): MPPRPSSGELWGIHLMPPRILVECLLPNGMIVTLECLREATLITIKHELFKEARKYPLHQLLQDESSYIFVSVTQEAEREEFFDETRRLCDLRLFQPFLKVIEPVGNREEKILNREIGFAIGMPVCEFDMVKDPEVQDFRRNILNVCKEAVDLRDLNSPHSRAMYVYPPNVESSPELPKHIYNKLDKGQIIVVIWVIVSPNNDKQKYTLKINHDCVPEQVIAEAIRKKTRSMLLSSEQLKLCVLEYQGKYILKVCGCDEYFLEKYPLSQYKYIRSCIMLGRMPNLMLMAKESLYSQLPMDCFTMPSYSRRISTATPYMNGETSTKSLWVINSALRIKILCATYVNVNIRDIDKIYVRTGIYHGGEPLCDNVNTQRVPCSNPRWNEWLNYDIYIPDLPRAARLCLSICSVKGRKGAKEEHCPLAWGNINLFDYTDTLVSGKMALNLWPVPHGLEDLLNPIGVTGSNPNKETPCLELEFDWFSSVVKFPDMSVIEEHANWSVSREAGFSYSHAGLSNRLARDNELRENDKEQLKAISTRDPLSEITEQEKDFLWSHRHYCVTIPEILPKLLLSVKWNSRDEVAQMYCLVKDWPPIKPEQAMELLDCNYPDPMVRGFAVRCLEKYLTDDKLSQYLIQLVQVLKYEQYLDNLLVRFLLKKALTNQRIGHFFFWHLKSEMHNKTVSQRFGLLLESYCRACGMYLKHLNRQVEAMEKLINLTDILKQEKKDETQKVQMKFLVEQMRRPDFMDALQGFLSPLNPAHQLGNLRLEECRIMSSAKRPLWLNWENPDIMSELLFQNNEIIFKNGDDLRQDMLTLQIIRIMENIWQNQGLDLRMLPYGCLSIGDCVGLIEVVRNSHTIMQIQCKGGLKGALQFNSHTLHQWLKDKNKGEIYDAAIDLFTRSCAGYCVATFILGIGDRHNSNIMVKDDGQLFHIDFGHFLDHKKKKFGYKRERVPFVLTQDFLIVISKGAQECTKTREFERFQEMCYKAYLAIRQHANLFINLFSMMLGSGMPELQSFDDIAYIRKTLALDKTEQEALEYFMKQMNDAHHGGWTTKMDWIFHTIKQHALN
T1 sequence (O00329 whole entry): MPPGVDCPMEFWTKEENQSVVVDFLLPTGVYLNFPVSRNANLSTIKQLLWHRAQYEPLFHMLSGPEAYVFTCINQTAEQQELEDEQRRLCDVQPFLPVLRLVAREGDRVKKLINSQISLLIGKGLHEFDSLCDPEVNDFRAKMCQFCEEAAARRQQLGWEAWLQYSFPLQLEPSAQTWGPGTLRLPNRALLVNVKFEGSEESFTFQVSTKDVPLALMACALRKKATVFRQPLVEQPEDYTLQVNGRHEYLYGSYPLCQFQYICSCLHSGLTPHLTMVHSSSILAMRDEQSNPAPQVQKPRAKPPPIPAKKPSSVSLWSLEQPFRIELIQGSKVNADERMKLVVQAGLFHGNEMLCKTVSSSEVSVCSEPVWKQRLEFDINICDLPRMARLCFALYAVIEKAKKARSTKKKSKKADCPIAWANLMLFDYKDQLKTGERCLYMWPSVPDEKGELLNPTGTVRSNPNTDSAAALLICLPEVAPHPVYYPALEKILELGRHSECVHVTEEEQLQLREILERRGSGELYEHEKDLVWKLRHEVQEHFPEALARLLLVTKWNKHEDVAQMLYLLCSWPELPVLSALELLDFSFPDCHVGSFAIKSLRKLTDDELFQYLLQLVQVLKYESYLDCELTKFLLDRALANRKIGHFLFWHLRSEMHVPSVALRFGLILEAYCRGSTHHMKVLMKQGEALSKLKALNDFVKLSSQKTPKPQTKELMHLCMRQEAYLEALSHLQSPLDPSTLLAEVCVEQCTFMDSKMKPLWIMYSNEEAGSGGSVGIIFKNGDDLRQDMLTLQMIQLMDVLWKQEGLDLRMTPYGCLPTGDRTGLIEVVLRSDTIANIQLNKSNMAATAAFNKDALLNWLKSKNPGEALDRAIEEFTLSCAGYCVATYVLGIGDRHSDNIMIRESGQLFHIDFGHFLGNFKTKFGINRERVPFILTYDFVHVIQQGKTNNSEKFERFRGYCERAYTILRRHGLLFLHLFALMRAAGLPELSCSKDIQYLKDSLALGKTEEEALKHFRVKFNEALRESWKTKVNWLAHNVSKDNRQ
T1 sequence (P27986 whole entry partner): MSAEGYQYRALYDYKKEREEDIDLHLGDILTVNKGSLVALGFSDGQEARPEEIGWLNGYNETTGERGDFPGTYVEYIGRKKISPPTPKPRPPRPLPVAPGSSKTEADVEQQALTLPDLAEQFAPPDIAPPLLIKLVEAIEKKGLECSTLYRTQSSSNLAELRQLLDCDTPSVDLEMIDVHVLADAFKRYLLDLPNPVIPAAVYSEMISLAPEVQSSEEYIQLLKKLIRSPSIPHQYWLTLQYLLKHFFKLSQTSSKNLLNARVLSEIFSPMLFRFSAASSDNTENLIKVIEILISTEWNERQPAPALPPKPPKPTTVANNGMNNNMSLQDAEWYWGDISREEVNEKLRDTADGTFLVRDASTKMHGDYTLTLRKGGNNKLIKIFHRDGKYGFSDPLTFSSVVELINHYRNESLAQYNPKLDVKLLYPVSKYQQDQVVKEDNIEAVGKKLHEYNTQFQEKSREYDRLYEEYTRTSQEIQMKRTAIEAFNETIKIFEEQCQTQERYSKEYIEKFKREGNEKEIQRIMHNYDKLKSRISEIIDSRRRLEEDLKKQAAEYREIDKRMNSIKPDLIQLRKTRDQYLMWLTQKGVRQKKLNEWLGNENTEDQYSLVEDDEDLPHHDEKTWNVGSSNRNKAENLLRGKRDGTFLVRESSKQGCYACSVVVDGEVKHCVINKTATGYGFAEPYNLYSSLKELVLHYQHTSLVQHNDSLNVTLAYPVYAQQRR

| IC50 (PI3Kδ) [nM] | α/δ ratio (PI3Kδ) | β/δ ratio (PI3Kδ) | γ/δ ratio (PI3Kδ) | IC50 (mTOR) [nM] | IC50 (PI3Kα) [nM] | SMILES |
| --- | --- | --- | --- | --- | --- | --- |
| ≤ 100 | A’ | A’ | A’ | > 500 | > 500 | Cc1cc(-c2ccccc2CC(C)(C)Nc2nc(N3CCOCC3)nc(-n3c(C(F)F)nc4ccccc43)n2)ccn1 [Compound A43, 4-(2-(difluoromethyl)-1H-benzo[d]imidazol-1-yl)-N-(2-methyl-1-(2-(2-methylpyridin-4-yl)phenyl)propan-2-yl)-6-morpholino-1,3,5-triazin-2-amine] |
| ≤ 100 | A’ | A’ | A’ | > 500 | 200 to 500 | CC(=O)N1CCC(c2ccccc2CC(C)(C)Nc2nc(N3CCOCC3)nc(-n3c(C(F)F)nc4ccccc43)n2)CC1 [Compound A72, 4-(2-(difluoromethyl)-1H-benzo[d]imidazol-1-yl)-N-(2-methyl-1-(2-(1-acetylpiperidin-4-yl)phenyl)propan-2-yl)-6-morpholino-1,3,5-triazin-2-amine] |
| ≤ 100 | A’ | A’ | A’ | > 500 | > 500 | COc1ccc(-c2ccccc2CC(C)(C)Nc2nc(N3CCOCC3)nc(-n3c(C(F)F)nc4ccccc43)n2)cc1 [Compound A67, 4-(2-(difluoromethyl)-1H-benzo[d]imidazol-1-yl)-N-(1-(4′-methoxybiphenyl-2-yl)-2-methylpropan-2-yl)-6-morpholino-1,3,5-triazin-2-amine] |
| ≤ 100 | A’ | A’ | A’ | > 500 | > 500 | COc1cc(-c2ccccc2CC(C)(C)Nc2nc(N3CCOCC3)nc(-n3c(C(F)F)nc4ccccc43)n2)ccn1 [Compound A41, 4-(2-(difluoromethyl)-1H-benzo[d]imidazol-1-yl)-N-(1-(2-(2-methoxypyridin-4-yl)phenyl)-2-methylpropan-2-yl)-6-morpholino-1,3,5-triazin-2-amine] |
| ≤ 100 | A’ | C’ | A’ | > 500 | 200 to 500 | CC(C)(Cc1ccccc1C1CCN(S(C)(=O)=O)CC1)Nc1nc(N2CCOCC2)nc(-n2c(C(F)F)nc3ccccc32)n1 [Compound A73, 4-(2-(difluoromethyl)-1H-benzo[d]imidazol-1-yl)-N-(2-methyl-1-(2-(1-(methylsulfonyl)piperidin-4-yl)phenyl)propan-2-yl)-6-morpholino-1,3,5-triazin-2-amine] |
| ≤ 100 | A’ |  | A’ | > 500 | > 500 | CC(C)(Cc1cccc(F)c1)Nc1nc(N2CCOCC2)nc(-n2c(C(F)F)nc3ccccc32)n1 [Compound A39, 4-(2-(difluoromethyl)-1H-benzo[d]imidazol-1-yl)-N-(1-(3-fluorophenyl)-2-methylpropan-2-yl)-6-morpholino-1,3,5-triazin-2-amine] |
| ≤ 100 | A’ | B’ | A’ | > 500 | > 500 | Cn1nccc1-c1ccccc1CC(C)(C)Nc1nc(N2CCOCC2)nc(-n2c(C(F)F)nc3ccccc32)n1 [Compound A46, 4-(2-(difluoromethyl)-1H-benzo[d]imidazol-1-yl)-N-(2-methyl-1-(2-(1-methyl-1H-pyrazol-5-yl)phenyl)propan-2-yl)-6-morpholino-1,3,5-triazin-2-amine] |
| ≤ 100 | A’ | A’ | A’ | > 500 | > 500 | COc1cccc(-c2ccccc2CC(C)(C)Nc2nc(N3CCOCC3)nc(-n3c(C(F)F)nc4ccccc43)n2)c1 [Compound A66, 4-(2-(difluoromethyl)-1H-benzo[d]imidazol-1-yl)-N-(1-(3′-methoxybiphenyl-2-yl)-2-methylpropan-2-yl)-6-morpholino-1,3,5-triazin-2-amine] |
| ≤ 100 | A’ | A’ | A’ | > 500 | > 500 | CC(C)(Cc1ccccc1-c1cncnc1)Nc1nc(N2CCOCC2)nc(-n2c(C(F)F)nc3ccccc32)n1 [Compound A63, 4-(2-(difluoromethyl)-1H-benzo[d]imidazol-1-yl)-N-(2-methyl-1-(2-(pyrimidin-5-yl)phenyl)propan-2-yl)-6-morpholino-1,3,5-triazin-2-amine] |
| ≤ 100 | A’ | A’ | A’ | > 500 | > 500 | CC(C)(Cc1ccccc1-c1cn[nH]c1)Nc1nc(N2CCOCC2)nc(-n2c(C(F)F)nc3ccccc32)n1 [Compound A44, 4-(2-(difluoromethyl)-1H-benzo[d]imidazol-1-yl)-N-(1-(2-(1H-pyrazol-4-yl)phenyl)-2-methylpropan-2-yl)-6-morpholino-1,3,5-triazin-2-amine] |
| ≤ 100 | A’ | A’ | A’ | > 500 | > 500 | CN1CCN(c2cc(-c3ccccc3CC(C)(C)Nc3nc(N4CCOCC4)nc(-n4c(C(F)F)nc5ccccc54)n3)ccn2)CC1 [Compound A64, 4-(2-(difluoromethyl)-1H-benzo[d]imidazol-1-yl)-N-(2-methyl-1-(2-(2-(4-methylpiperazin-1-yl)pyridin-4-yl)phenyl)propan-2-yl)-6-morpholino-1,3,5-triazin-2-amine] |
| ≤ 100 | A’ | A’ | A’ | > 500 | > 500 | COc1cc(CC(C)(C)Nc2nc(N3CCOCC3)nc(-n3c(C(F)F)nc4ccccc43)n2)ccc1F [Compound A50, 4-(2-(difluoromethyl)-1H-benzo[d]imidazol-1-yl)-N-(1-(4-fluoro-3-methoxyphenyl)-2-methylpropan-2-yl)-6-morpholino-1,3,5-triazin-2-amine] |
| ≤ 100 | A’ | A’ | A’ | > 500 | > 500 | CC(C)(Cc1ccccc1Cl)Nc1nc(N2CCOCC2)nc(-n2c(C(F)F)nc3ccccc32)n1 [Compound A16, 4-(2-(difluoromethyl)-1H-benzo[d]imidazol-1-yl)-N-(1-(2-chlorophenyl)-2-methylpropan-2-yl)-6-morpholino-1,3,5-triazin-2-amine] |
| ≤ 100 | A’ | C’ | A’ | > 500 | > 500 | CC(C)(Cc1ccccc1C1CCNC1)Nc1nc(N2CCOCC2)nc(-n2c(C(F)F)nc3ccccc32)n1 (centres unmarked) [Compound A74, 4-(2-(difluoromethyl)-1H-benzo[d]imidazol-1-yl)-N-(2-methyl-1-(2-(pyrrolidin-3-yl)phenyl)propan-2-yl)-6-morpholino-1,3,5-triazin-2-amine] |
| ≤ 100 | A’ | A’ | A’ | > 500 | > 500 | CC(C)(Cc1ccccc1-c1cccnc1F)Nc1nc(N2CCOCC2)nc(-n2c(C(F)F)nc3ccccc32)n1 [Compound A62] |

— patent publication US12059422B2 (MEI Pharma, Inc., priority 2011, dated 2024)
